The values that follow come from US20220370440A1 (Lead Discovery Center GmbH, priority 2018, published 2022).

Experiment [1] concerns A431. Briefly: A431 CellTiter-Glo. Type of experiment: cell-based. The note with it: Homo sapiens, A-431; 72 h compound incubation; read-out: A431 CTG IC50. In a few lines: (§1)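 ATP-based luminescent viability read after 72 h compound exposure (DMSO vehicle, range of concentrations), cells plated 24 h beforehand at 37° C, 5% CO2. IC50 by dose-response fitting; 10 μM Staurosporine and DMSO controls, Z′-factor ≥0.5 required.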
For orientation: In ATP-based viability assays light output follows the ATP content of the culture.

Experiment [2] has as its target EGFR wt (Homo sapiens, UniProt P00533). The experiment is described as follows: EGFR wt Lance assay. The experiment is classed as biochemical. The method, then: (§2) Inhibition is indicated as […] [nM] (“−”=not measured). Compounds having an activity designated as “A” provided an IC50≤100 nM; compounds having an activity designated as “B” provided an 100 nM<IC50≤500 nM; compounds having an activity designated as “C” provided an 500 nM<IC50≤1000 nM; compounds having an activity designated as “D” provided an 1000 nM<IC50≤100000 nM; and compounds having an activity designated as “E” provided an IC50>10000 nM.

Experiment [3] has as its target Her2 Exon 20 INSYVMA Ba/F3 (Homo sapiens, UniProt P04626, DUP772-775, cells depend on it). The experiment is described as follows: Her2 Exon 20 INSYVMA Ba/F3 CellTiter-Glo. The experiment is classed as cell-based. The note with it: CellTiter-Glo, 72 h, read-out: Her2 Exon 20 INSYVMA Ba/F3 CTG IC50. The gist of the method:
(§3)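 IC50 values come from dose–response fits of CellTiter-Glo luminescence in Ba/F3 cells treated with compound for 72 h at 37 °C, 5% CO2. Vehicle (DMSO) and 10 μM staurosporine wells set the assay window, with Z′ ≥0.5 required.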

Experiment [4] addresses EGFR Exon 20 INSNPH Ba/F3 (Homo sapiens, UniProt P00533, DUP771-773, cells depend on it). Briefly: EGFR Exon 20 INSNPH Ba/F3 CellTiter-Glo. The experiment is classed as cell-based. The note with it: CellTiter-Glo, 72 h, read-out: EGFR Exon 20 INSNPH Ba/F3 CTG IC50. In a few lines:
as §3

Experiment [5] addresses T1, HER2 INS YVMA (Homo sapiens, UniProt P04626, INS775YVMA).
T1 construct: purchased DPF
The experiment is described as follows: Lance Kinase Activity Assay, HER2 INS YVMA (Her2 Exon 20 INSYVMA Lance). The experiment is classed as biochemical. The note with it: biochemical Lance assay. In a few lines: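 IC50 was fitted to sigmoidal curves of TR-FRET signal (665 and 615 nm emission after 340 nm excitation) from an Eu anti-phospho antibody binding the phosphorylated ULight peptide. The ATP-started reaction ran 1 h at RT and was then quenched with 10 mM EDTA plus antibody for a further 1 h. Compounds were tested as 8-point, 3-fold dilutions.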

For experiment [6], the target named is EGFR T790ML858R (Homo sapiens, UniProt P00533, L858R/T790M). Briefly: EGFR T790ML858R Lance assay. Type of experiment: biochemical. The method, then:
as §2

Experiment [7] relates to H1975. The experiment is described as follows: H1975 CellTiter-Glo. Type of experiment: cell-based. The note with it: Homo sapiens, NCI-H1975; 72 h compound incubation; read-out: H1975 CTG IC50. The gist of the method: as §1

EGFR wt, sequence (P00533 25-1210): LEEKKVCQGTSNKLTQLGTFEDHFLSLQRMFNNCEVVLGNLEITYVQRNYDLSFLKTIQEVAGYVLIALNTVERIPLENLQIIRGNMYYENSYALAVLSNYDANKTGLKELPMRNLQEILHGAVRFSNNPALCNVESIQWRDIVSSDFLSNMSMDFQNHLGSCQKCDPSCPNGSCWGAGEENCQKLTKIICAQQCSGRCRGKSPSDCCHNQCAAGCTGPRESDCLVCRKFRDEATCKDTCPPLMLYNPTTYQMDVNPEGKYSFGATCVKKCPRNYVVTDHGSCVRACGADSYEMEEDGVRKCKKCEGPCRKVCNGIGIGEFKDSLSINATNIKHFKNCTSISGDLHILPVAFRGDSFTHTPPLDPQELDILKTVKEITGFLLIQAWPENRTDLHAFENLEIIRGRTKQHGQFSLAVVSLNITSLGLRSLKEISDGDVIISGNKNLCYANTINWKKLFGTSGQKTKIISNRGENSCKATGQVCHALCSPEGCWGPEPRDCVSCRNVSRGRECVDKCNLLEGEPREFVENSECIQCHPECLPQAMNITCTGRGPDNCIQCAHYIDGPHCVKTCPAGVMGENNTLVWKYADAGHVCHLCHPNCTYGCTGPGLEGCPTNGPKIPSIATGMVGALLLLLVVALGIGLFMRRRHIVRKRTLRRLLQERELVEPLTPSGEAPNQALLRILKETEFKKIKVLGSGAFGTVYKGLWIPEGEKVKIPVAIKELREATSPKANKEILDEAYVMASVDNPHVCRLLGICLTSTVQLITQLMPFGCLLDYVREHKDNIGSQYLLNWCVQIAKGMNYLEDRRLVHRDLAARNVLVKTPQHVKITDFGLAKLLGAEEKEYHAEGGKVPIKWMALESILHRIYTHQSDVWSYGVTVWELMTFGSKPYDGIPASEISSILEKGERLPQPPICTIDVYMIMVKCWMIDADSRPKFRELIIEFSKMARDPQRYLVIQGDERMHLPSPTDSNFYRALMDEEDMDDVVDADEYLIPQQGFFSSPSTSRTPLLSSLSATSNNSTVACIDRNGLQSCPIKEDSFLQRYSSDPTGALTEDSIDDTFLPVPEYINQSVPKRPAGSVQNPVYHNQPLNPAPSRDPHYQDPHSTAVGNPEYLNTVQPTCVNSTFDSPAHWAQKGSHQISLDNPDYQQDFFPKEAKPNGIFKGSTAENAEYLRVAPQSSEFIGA
T1 sequence (P04626 with tags, fused parts or gaps INS775YVMA): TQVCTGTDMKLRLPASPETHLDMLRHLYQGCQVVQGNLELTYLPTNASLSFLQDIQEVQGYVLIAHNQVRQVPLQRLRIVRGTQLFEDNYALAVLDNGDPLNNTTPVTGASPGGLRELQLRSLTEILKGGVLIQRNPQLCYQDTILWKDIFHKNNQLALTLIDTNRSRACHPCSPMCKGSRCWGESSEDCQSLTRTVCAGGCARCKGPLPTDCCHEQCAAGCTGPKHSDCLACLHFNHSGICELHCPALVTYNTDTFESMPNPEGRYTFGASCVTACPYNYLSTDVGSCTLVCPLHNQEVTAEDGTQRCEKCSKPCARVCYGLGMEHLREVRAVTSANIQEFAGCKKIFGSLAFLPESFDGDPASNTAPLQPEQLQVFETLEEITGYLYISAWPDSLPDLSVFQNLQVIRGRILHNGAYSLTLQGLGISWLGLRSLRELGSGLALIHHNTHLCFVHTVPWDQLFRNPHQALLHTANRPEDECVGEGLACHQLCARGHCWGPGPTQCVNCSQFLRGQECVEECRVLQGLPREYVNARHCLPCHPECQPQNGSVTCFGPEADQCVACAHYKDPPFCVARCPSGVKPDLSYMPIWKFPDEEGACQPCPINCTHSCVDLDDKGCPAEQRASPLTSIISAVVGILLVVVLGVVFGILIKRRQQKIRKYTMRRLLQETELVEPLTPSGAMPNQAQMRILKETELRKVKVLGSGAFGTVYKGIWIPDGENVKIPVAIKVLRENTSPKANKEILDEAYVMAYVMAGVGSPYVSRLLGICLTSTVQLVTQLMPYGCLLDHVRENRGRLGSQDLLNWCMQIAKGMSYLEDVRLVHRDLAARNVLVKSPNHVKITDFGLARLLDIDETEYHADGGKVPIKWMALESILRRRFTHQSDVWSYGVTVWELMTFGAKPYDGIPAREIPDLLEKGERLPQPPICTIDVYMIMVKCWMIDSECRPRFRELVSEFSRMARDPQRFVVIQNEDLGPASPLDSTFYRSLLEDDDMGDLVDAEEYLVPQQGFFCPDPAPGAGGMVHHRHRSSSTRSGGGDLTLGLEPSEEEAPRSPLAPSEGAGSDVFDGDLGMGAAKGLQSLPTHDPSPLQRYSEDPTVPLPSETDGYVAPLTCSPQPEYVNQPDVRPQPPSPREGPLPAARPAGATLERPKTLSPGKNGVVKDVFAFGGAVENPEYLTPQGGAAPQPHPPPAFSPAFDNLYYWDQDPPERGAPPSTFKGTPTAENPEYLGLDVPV
Her2 Exon 20 INSYVMA Ba/F3, sequence (P04626 with tags, fused parts or gaps DUP772-775): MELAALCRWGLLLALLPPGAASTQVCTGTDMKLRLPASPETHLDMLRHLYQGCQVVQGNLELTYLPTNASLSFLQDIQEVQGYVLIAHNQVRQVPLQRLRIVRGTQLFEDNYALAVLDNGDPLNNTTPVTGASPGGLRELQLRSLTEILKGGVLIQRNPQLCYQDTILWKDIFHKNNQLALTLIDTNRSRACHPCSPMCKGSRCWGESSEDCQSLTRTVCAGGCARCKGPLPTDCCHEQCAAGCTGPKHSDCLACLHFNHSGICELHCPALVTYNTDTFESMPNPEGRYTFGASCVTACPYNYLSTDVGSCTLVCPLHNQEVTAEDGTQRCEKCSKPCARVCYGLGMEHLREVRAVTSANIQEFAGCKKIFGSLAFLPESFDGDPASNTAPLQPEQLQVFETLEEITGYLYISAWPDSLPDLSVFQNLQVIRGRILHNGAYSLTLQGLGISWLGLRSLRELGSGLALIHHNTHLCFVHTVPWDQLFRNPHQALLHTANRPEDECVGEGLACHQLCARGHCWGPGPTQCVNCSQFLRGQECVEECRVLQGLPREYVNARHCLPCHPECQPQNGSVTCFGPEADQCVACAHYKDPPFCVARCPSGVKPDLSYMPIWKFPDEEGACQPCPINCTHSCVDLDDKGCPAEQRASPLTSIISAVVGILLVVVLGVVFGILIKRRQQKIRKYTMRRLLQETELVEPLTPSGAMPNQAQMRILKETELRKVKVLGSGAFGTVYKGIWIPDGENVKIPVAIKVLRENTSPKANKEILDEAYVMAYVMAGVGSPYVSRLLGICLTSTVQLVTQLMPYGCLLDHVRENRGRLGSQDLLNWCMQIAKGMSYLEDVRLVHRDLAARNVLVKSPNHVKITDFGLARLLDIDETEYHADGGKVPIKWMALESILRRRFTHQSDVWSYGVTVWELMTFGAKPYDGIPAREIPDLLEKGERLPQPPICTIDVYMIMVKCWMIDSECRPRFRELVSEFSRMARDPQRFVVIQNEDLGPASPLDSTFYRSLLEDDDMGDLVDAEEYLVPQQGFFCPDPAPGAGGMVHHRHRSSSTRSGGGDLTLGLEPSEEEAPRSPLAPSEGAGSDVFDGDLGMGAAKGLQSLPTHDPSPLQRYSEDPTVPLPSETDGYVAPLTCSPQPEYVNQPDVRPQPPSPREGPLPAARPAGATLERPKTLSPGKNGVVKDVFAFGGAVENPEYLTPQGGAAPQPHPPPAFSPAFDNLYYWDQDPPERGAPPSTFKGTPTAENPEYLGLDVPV
EGFR Exon 20 INSNPH Ba/F3, sequence (P00533 with tags, fused parts or gaps DUP771-773): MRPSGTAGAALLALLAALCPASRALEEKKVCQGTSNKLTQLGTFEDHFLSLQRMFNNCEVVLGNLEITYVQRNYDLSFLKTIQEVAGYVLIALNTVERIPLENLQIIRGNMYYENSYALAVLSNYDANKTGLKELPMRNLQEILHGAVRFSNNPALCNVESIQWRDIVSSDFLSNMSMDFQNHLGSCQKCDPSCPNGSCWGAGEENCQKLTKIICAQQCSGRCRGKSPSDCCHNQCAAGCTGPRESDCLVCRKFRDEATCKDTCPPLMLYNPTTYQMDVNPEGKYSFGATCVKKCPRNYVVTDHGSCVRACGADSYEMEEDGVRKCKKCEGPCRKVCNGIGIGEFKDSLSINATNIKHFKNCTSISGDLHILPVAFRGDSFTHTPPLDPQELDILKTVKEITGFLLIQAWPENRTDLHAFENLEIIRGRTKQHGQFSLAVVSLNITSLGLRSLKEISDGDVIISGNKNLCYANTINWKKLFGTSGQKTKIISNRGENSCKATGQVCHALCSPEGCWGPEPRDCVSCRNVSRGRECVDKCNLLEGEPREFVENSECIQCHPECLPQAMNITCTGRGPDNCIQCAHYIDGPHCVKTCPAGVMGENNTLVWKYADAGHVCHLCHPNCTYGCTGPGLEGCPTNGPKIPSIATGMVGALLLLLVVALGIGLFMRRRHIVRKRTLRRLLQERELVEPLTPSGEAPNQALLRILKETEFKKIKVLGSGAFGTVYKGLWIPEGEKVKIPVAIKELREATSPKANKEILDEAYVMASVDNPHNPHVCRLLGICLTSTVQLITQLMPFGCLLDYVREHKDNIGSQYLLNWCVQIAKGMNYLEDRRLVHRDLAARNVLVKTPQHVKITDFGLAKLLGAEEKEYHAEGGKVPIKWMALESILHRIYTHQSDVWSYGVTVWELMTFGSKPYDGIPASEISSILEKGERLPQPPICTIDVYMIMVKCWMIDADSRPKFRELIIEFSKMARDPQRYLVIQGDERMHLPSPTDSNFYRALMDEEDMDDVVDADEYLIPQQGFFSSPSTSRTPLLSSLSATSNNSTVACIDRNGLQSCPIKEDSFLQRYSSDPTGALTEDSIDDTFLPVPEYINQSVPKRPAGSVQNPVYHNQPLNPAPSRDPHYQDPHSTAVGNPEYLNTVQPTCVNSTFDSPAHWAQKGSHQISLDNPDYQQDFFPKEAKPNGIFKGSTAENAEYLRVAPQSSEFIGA

As a reminder, the IC50 is the concentration that inhibits the measured activity by half. Turning to `C=CC(=O)Nc1cc(-c2c(-c3ccc(N4CCN(C)CC4)cc3)[nH]c3ncc(OCC)cc23)ccc1C` [Example 193, N-(5-(5-ethoxy-2-(4-(4-methylpiperazin-1-yl)phenyl)-1H-pyrrolo[2,3-b]pyridin-3-yl)-2-methylphenyl)acrylamide 2,2,2-trifluoroacetate], the IC50 in experiment [1] is 1000 to 100000 nM; in experiment [2] it was at most 100 nM; in experiment [5], at most 100 nM; in experiment [6], at most 100 nM; in experiment [7], 100 to 500 nM. The GI50 in experiment [3] was at most 100 nM; in experiment [4], 100 to 500 nM.

As to `C=CC(=O)Nc1cc(-c2c(-c3ccc(N4CCN(C)CC4)cc3)[nH]c3ncc(NC(C)=O)cc23)ccc1C` [Example 201, N-(5-(5-acetamido-2-(4-(4-methylpiperazin-1-yl)phenyl)-1H-pyrrolo[2,3-b]pyridin-3-yl)-2-methylphenyl)acrylamide], the IC50 in experiment [1] is 1000 to 100000 nM; in experiment [2], at most 100 nM; in experiment [5] it was at most 100 nM; in experiment [6], at most 100 nM; in experiment [7], 1000 to 100000 nM. For the same compound, the GI50 in experiment [3] and in experiment [4] was 1000 to 10000 nM throughout.

As for `C=CC(=O)Nc1cc(-c2c(-c3ccc(N4CCN(C)CC4)cc3)[nH]c3ncc(C(=O)NCc4ccncc4)cc23)ccc1C` [Example 127, 3-(3-acrylamido-4-methylphenyl)-2-(4-(4-methylpiperazin-1-yl)phenyl)-N-(pyridin-4-ylmethyl)-1H-pyrrolo[2,3-b]pyridine-5-carboxamide], the IC50 in experiment [1] was 1000 to 100000 nM; in experiment [2] it was at most 100 nM; in experiment [5], at most 100 nM; in experiment [6] it was at most 100 nM; in experiment [7], 1000 to 100000 nM. The GI50 in experiment [3] and in experiment [4] was 1000 to 10000 nM each time.

For the compound `C=CC(=O)Nc1cc(-c2c(-c3cnc(N4CCN(C)CC4)nc3)[nH]c3ncc(C(=O)OC(C)C)cc23)ccc1C` [Example 175, isopropyl 3-(3-acrylamido-4-methylphenyl)-2-(2-(4-methylpiperazin-1-yl)pyrimidin-5-yl)-1H-pyrrolo[2,3-b]pyridine-5-carboxylate], the IC50 in experiment [1] is 1000 to 100000 nM; in experiment [2], at most 100 nM; in experiment [5], 100 to 500 nM; in experiment [6], 100 to 500 nM; in experiment [7], 1000 to 100000 nM. The GI50 in experiment [3] and in experiment [4] was 1000 to 10000 nM each time.

Regarding `C=CC(=O)Nc1cc(-c2c(-c3cnc(N4CCN(C)CC4)s3)[nH]c3ncc(C(=O)OC(C)C)cc23)ccc1C` [Example 169, isopropyl 3-(3-acrylamido-4-methylphenyl)-2-(2-(4-methylpiperazin-1-yl)thiazol-5-yl)-1H-pyrrolo[2,3-b]pyridine-5-carboxylate], the half-maximal inhibitory concentration (IC50) in experiment [1] is 1000 to 100000 nM; in experiment [2], at most 100 nM; in experiment [5], at most 100 nM; in experiment [6], at most 100 nM; in experiment [7], 1000 to 100000 nM. The results for the GI50 in experiment [3] and in experiment [4] were 500 to 1000 nM and 100 to 500 nM, respectively.

`C=CC(=O)Nc1cc(-c2c(-c3ccc(N4CCN(C)CC4)cc3)[nH]c3ncc(C(=O)OC4COC4)cc23)ccc1C` [Example 141, oxetan-3-yl 3-(3-acrylamido-4-methylphenyl)-2-(4-(4-methylpiperazin-1-yl)phenyl)-1H-pyrrolo[2,3-b]pyridine-5-carboxylate]: the IC50 was 1000 to 100000 nM in experiment [1]; at most 100 nM in experiment [2]; at most 100 nM in experiment [5]; at most 100 nM in experiment [6]; 100 to 500 nM in experiment [7]. Besides, the GI50 in experiment [3] and in experiment [4] was 500 to 1000 nM throughout.

Consider `C=CC(=O)Nc1cc(-c2c(-c3ccc(N4CCN(C)CC4)cc3)[nH]c3nccc(Cl)c23)cc(C)c1C` [Example 150, N-(5-(4-chloro-2-(4-(4-methylpiperazin-1-yl)phenyl)-1H-pyrrolo[2,3-b]pyridin-3-yl)-2,3-dimethylphenyl)acrylamide 2,2,2-trifluoroacetate], for which the IC50 in experiment [1] is 500 to 1000 nM; in experiment [2] it was at most 100 nM; in experiment [5], at most 100 nM; in experiment [6], at most 100 nM; in experiment [7], at most 100 nM. Also, the GI50 fell in the range of 500 to 1000 nM in experiment [3] and 100 to 500 nM in experiment [4].

Turning to `C=CC(=O)Nc1cc(-c2c(-c3ccc(N4CCN(C)CC4)cc3)[nH]c3ncc(C(=O)NCc4ccc(F)cc4F)cc23)ccc1C` [Example 131, 3-(3-acrylamido-4-methylphenyl)-N-(2,4-difluorobenzyl)-2-(4-(4-methylpiperazin-1-yl)phenyl)-1H-pyrrolo[2,3-b]pyridine-5-carboxamide], the IC50 in experiment [1] was 1000 to 100000 nM; in experiment [2], at most 100 nM; in experiment [5] it was 100 to 500 nM; in experiment [6], 500 to 1000 nM; in experiment [7], 1000 to 100000 nM. The GI50 in experiment [3] was in the range of 500 to 1000 nM; in experiment [4], 1000 to 10000 nM.

Consider `C=CC(=O)N1CCc2ccc(-c3c(-c4ccc(N5CCN(C)CC5)cc4)[nH]c4ncc(C(=O)OC(C)C)cc34)cc21` [Example 192, isoproyl 3-(1-acryloylindolin-6-yl)-2-(4-(4-methylpiperazin-1-yl)phenyl)-1H-pyrrolo[2,3-b]pyridine-5-carboxylate 2,2,2-trifluoroacetate], for which the IC50 in experiment [1] was 1000 to 100000 nM; in experiment [2], at most 100 nM; in experiment [5] it was at most 100 nM; in experiment [6] it was at most 100 nM; in experiment [7], 1000 to 100000 nM. Besides, the GI50 in experiment [3] was 100 to 500 nM; in experiment [4], 500 to 1000 nM.

Take `C=CC(=O)Nc1cc(-c2c(-c3ccc(N4CCN(C)CC4)cc3)[nH]c3ncc(C(=O)NCc4cccc(NC(C)=O)c4)cc23)ccc1C` [Example 121, N-(3-acetamidobenzyl)-3-(3-acrylamido-4-methylphenyl)-2-(4-(4-methylpiperazin-1-yl)phenyl)-1H-pyrrolo[2,3-b]pyridine-5-carboxamide]: the IC50 in experiment [1] was over 10000 nM; in experiment [2], at most 100 nM; in experiment [5], at most 100 nM; in experiment [6], 100 to 500 nM; in experiment [7], over 10000 nM. Further, the GI50 in experiment [3] and in experiment [4] was over 10000 nM in each case.

As for `C=CC(=O)Nc1cc(-c2c(-c3ccc(N4CCN(C)CC4)cc3)[nH]c3ncc(C(=O)OC(C)C)cc23)c(C)cc1C` [Example 202, isoproyl 3-(5-acrylamido-2,4-dimethylphenyl)-2-(4-(4-methylpiperazin-1-yl)phenyl)-1H-pyrrolo[2,3-b]pyridine-5-carboxylate 2,2,2-trifluoroacetate], the IC50 is over 10000 nM in experiment [1]; at most 100 nM in experiment [2]; 1000 to 10000 nM in experiment [5]; 100 to 500 nM in experiment [6]; 1000 to 100000 nM in experiment [7]. Further, the GI50 in experiment [3] and in experiment [4] was 1000 to 10000 nM throughout.

Consider `C=CC(=O)Nc1cc(-c2c(-c3ccc(OCCO)cc3)[nH]c3ncc(C(=O)OC(C)C)cc23)ccc1C` [Example 178, isopropyl 3-(3-acrylamido-4-methylphenyl)-2-(4-(2-hydroxyethoxy)phenyl)-1H-pyrrolo[2,3-b]pyridine-5-carboxylate], for which the IC50 was 1000 to 100000 nM in experiment [1]; at most 100 nM in experiment [2]; 100 to 500 nM in experiment [5]; 100 to 500 nM in experiment [6]; 1000 to 100000 nM in experiment [7]. For the same compound, the GI50 in experiment [3] lay in the range of 1000 to 10000 nM; in experiment [4] it was 500 to 1000 nM.

Take `C=CC(=O)Nc1cc(-c2c(-c3ccc(N4CCN(C)CC4)cc3)[nH]c3ncc(C(=O)NCc4ccc(CN5CCN(C)CC5)cc4)cc23)ccc1C` [Example 122, 3-(3-acrylamido-4-methylphenyl)-N-(4-((4-methylpiperazin-1-yl)methyl)benzyl)-2-(4-(4-methylpiperazin-1-yl)phenyl)-1H-pyrrolo[2,3-b]pyridine-5-carboxamide]: the IC50 in experiment [1] is 1000 to 100000 nM; in experiment [2], at most 100 nM; in experiment [5], at most 100 nM; in experiment [6], at most 100 nM; in experiment [7], 1000 to 100000 nM. For the same compound, the GI50 in experiment [3] and in experiment [4] was 1000 to 10000 nM each time.
